The numbers were not newly measured in patent publication US20030013692A1, “Methods of treating neurological disorders” (priority 2001, published 2003), which cites them from elsewhere.

A value given as a limit tells only on which side of the number the result lay.

For the series the following is noted: nimodipine treated subarachnoid hemorrhage (SAH) patients.

In the case of `COCCOC(=O)C1=C(C)NC(C)=C(C(=O)OC(C)C)C1c1cccc([N+](=O)[O-])c1` (stereo not shown) [nimodipine, Isopropyl (2-methoxyethyl) 1,4-dihydro-2,6-dimethyl-4-(3-nitrophenyl)-3,5-pyridine-dicarboxylate], the “concentration detected in the cerebrospinal fluid” value was at most 12.5 ng/mL.
